Measured values taken from patent publication US20040105856A1 (priority 2002, published 2004).

Key:
[1] = test system: croton oil induced topical inflammation in mice; details: H4 ANTAG #1 10 mg/kg
[2] = target: recombinant human histamine H4 receptor (Homo sapiens, UniProt Q9H3N8); details: histamine 100 pM-100 uM, forskolin 3 uM
Sequence of recombinant human histamine H4 receptor (Q9H3N8 whole entry): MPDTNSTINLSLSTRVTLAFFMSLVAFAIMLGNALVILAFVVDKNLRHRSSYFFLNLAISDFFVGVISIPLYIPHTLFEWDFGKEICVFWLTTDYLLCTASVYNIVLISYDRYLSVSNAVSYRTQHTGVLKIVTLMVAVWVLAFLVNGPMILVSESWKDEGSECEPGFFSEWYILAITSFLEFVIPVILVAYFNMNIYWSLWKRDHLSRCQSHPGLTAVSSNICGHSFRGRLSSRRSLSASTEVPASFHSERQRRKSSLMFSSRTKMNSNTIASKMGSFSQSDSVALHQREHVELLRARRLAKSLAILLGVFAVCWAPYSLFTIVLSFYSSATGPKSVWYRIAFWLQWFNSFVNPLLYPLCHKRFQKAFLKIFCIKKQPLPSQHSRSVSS

SMILES	Difference in ear thickness (×0.01 mm), Mean ([1]; s.c. 30 min before and 2, 4 h after croton oil, Indomethacin 30 mg/kg, measured 6 h after croton oil) [×0.01 mm]	% inhib of ear swelling ([1]; versus vehicle group, Indomethacin 30 mg/kg s.c.)	Activation of the receptor (decrease of cAMP content in response to forskolin) [2]
COc1ccc2c(c1)c(CC(=O)O)c(C)n2C(=O)c1ccc(Cl)cc1 [Indomethacin]	10.0	(−40%)	
NCCc1c[nH]cn1 [Histamine]			specifically activated
